Molecular target: T1, α-glucosidase type 1 from S. cerevisiae (Sigma G5003)
T1 construct: gene MAL12; commercial enzyme preparation from yeast (Sigma-Aldrich)
Experiment: 4-nitrophenyl alpha-D-glucopyranoside hydrolysis, absorbance […] nm
Format: biochemical, Saccharomyces cerevisiae
Conditions: PNPG substrate; phosphate buffer pH 6.5; room temperature; 5 min preincubation; positive control

With `O=c1c(O)c(-c2ccc(O)c(O)c2)oc2cc(O)cc(O)c12` [Quercetin] the “α-glucosidase inhibitory activity, IC50 (μg mL^- 1)” value was 110.50 ± 4.30 µg/mL.
